This is an account of results in patent US8367714B2, “Cannabinoid receptor targeted agent” (Vanderbilt University, priority 2007, dated 2013).

Experiment [1] has as its target CB2 receptor (Homo sapiens, UniProt P34972). To be noted: cited from earlier work.
The target in experiment [2] is T1, CB2 receptor (Mus musculus, UniProt P47936).
T1 construct: expressed in transfected cells; host or cells: DBT mouse astrocytoma cells, 2D4 clone; wild-type DBT cells lack CB2
As to the kind of experiment: Fluorescence imaging of live DBT cells (2D4 CB2-expressing clone and wild type) and competition study. In kind it is cell-based. The following applies: 5 μM, control for non-specific binding due to the dye (FIG. 2). An excerpt: To test whether NIRmbc94 reliably binds to the CB2 receptor, we already had in place a system wherein the receptor was both absent and present.

Sequence of CB2 receptor (Homo sapiens, UniProt P34972) (P34972 whole entry): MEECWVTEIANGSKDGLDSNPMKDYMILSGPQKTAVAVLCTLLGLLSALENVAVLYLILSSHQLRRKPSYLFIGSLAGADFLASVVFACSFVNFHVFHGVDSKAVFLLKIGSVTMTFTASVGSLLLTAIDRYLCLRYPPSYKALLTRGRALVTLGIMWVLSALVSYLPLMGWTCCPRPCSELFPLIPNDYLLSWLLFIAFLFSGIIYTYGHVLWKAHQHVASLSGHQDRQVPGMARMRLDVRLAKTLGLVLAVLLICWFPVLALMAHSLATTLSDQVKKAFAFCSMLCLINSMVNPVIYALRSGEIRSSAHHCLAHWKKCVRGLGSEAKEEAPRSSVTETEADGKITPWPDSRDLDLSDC
T1 sequence (P47936 whole entry): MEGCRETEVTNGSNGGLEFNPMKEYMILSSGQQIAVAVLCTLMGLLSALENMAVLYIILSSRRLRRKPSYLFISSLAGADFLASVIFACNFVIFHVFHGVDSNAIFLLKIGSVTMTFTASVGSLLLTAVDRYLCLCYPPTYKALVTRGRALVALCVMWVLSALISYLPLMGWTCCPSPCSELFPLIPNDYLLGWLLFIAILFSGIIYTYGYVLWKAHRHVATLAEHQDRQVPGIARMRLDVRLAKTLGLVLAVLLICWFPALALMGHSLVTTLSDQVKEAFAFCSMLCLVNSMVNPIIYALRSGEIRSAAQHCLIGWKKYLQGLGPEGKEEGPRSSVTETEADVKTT

Turning to `COc1ccc(C(=O)c2c(C)n(CCN3CCOCC3)c3cc(I)ccc23)cc1` [AM630], the CB2/CB1 affinity ratio in experiment [1] is 165.

Turning to `CC1(C)C(=CC=C2CCCC(C=CC3=[N+](CCCCCC(=O)[O-])c4ccc(S(=O)(=O)[O-])cc4C3(C)C)=C2Oc2ccc(S(=O)(=O)[O-])cc2)N(CCCCS(=O)(=O)[O-])c2ccc(S(=O)(=O)[O-])cc21.[Na+].[Na+].[Na+].[Na+]` [IRDye™ 800CW acid], the “fluorescence of cells dosed with free dye” value in experiment [2] is “does not produce significant fluorescence”.

In the case of SR144528, the CB2/CB1 affinity ratio in experiment [1] was more than 700.
